Here are results for two compounds from patent publication US20110319351A1 (priority 2006, published 2011).

For data set [1], the system named is Jurkat cells. Put plainly: Induction of apoptosis, annexin V-FITC/propidium iodide flow cytometry, Jurkat. It is filed as cell-based, human. As to conditions: for IC50: Homo sapiens, Jurkat; for highest percentage of apoptosis / increase in apoptosis vs untreated control: Jurkat cells; for highest percentage of apoptosis: n=4; for increase in apoptosis vs untreated control: increasing concentration 10 nM-500 nM. As for the experimental part:
(§1) It was determined that the cardiac glycosides (e.g., digoxin and ouabain) selectively induce apoptosis in cancer cells relative to normal non-transformed cells. Through the experiments, some cells were exposed to ultraviolet irradiation as a positive control for induction of apoptosis, whereas cells cultured under normal conditions (95% […]/5% CO2 at 37° C.) acted as the negative control (see Methods). The percentage of counted cells in the lower and upper right hand quadrants are indicative of cells in early and late apoptosis, respectively. The viable cells are at the lower left quadrant. The figures that follow are summaries of data stemming from analysis of percent of cell count undergoing apoptosis as measured in FIG. 1.
(§2) Cell lines used in this study included: Jurkat E6-1, an acute human T-lymphoblastic leukemia cell line generated from a person; Daudi, a human B-lymphoblastoid line derived from Burkitt's lymphoma patient and K 562 derived from a human chronic myelogenous leukemia cell line. All cell lines were maintained in RPMI 1640 medium (Gibco Laboratories, Grand Island, N.Y.) supplemented with 10% fetal calf serum (FCS), 10 mM HEPES, 2 mM glutamine, 50 IU/mL penicillin, 50 μg/mL streptomycin, 0.1 mM non-essential amino acids and 1 mM sodium pyruvate and 0.5 μg/mL amphotericin B. Cells were cultured in a 5% CO2 atmosphere in a thermostatically maintained incubator (37° C.) in standard cell culture flasks. Cell cultures were split every 2-3 days and passage number noted.
(§3) Tumor cell lines (5×10^5 cells/well) and PBMC (1×10^6 cells/well) were cultured in 24-well plates in the presence or absence of various concentrations of digoxin or ouabain for 48 h. The cells were harvested, washed twice in PBS, and analyzed for induction of apoptosis by annexin V-FITC/propidium iodide (PI) method (BD Bioscience, Lincoln Park, N.J.) according to the manufacturer's instructions. Cells were washed once with 1× binding buffer and stained with annexin V-FITC (5 μL) and PI (10 μL) for 15 minutes in the dark. Apoptosis was determined by flow cytometric analyses on a FACScan (BD Biosciences, Lincoln Park, N.J.). Ten thousand cells were analyzed per sample. In experiments where the effect of PHA was studied, cells were seeded accordingly in a 24-well plate and stimulated with PHA (1 μg/mL) for a minimum of 2 hours before treatment with the indicated concentrations of ouabain or digoxin. As a positive control for apoptosis, cells were exposed to ultra violet irradiation for […] and apoptosis was analyzed according to the method described above.
Background: Flow cytometry measures light scatter and fluorescence of single cells or particles in a stream.

Data set [2] relates to peripheral blood mononuclear cells (PBMC). Description: Induction of apoptosis, annexin V-FITC/propidium iodide flow cytometry, PBMC. It is filed as cell-based, human. The note with it: increasing concentration, 48 h. As for the experimental part:
as §1, with “1. […]” for “1.”
(§4) Tumor cell lines (5×10^5 cells/well) and PBMC (1×10^6 cells/well) were cultured in 24-well plates in the presence or absence of various concentrations of digoxin or ouabain for 48 h. The cells were harvested, washed twice in PBS, and analyzed for induction of apoptosis by annexin V-FITC/propidium iodide (PI) method (BD Bioscience, Lincoln Park, N.J.) according to the manufacturer's instructions. […] Apoptosis was determined by flow cytometric analyses on a FACScan (BD Biosciences, Lincoln Park, N.J.). Ten thousand cells were analyzed per sample. […]

A further data set relates to K 562 cells. Description: Induction of apoptosis, annexin V-FITC/propidium iodide flow cytometry, K 562. As to conditions: increasing concentrations, 48 h. It is filed as cell-based, human. On the procedure:
as §1, with “1. […]” for “1.”
as §4

In data set [3] the test system is Jurkat cells. Description: Apoptosis after PHA stimulation, Jurkat. The class given is cell-based, human. The note with it: PHA 1 μg/mL, digoxin 10 nM and 100 nM, 48 h. As for the experimental part:
as §3

Data set [4] addresses T1, porcine cerebral cortex Na,K-ATPase.
T1 construct: other: 50% response relative to the m
The class given is biochemical. An excerpt:
In the current study, the sensitivity of cardiac glycosides on induction of apoptosis in lymphoblastic cancer cells was examined. The efficacy of digoxin and ouabain in inducing apoptosis in these cell lines was compared with NKA catalytic inhibition activity using porcine cerebral cortex (Table 1). The porcine cerebral cortex (PCC) is a model system known to express the three isoforms of NKA consisting of the three different alpha subunits (α1, α2 and α3) (Rose et al., Clin Chem, 40, 1674-1685 (1994)). The alpha subunit of the NKA contains the binding site of the cardiac glycosides, and like most cationic transporter proteins, the beta subunit act as chaperon, stabilizing the correct assembly of the alpha subunit and facilitating the delivery of the protein to the plasma membrane (Blanco et al., Am J Physiol, 275 (Renal Physiol. 44), F633-F650 (1998)).
In order to compare the concentrations of digoxin or ouabain that affect the induction of apoptosis with those that inhibit the sodium pump, the inhibitory potency of digoxin and ouabain on porcine cerebral cortex (PCC) Na.,K-ATPase catalytic activity was examined.
The values were calculated as 50% response relative to the maximum NKA activity on the PCC or maximum apoptosis on Jurkat and Daudi cells within the concentration ranges tested.
Inhibition of sodium pump catalytic activity by cardiac glycosides was measured by the release of phosphate upon hydrolysis of ATP (Qazzaz et al., Endocrinology, 141, 3200-3209 (2000)).

For data set [5], the system named is caspase-3 activity in PBMC. Put plainly: DEVD-dependent caspase-3 activity, PBMC. It is filed as cell-based, human. The note with it: 100 nM, 12 h. On the procedure:
(§5) Measurement of DEVD-dependent caspase-3 activity is a measure of induction of apoptosis, irrespective of the apoptotic pathway activated. The effect of digoxin (100 nM) to induce activation of caspase-3 activity in these tumor cell lines and as well as normal PBMC was examined. Tumor cells (1×10^7 cell/mL) and PBMC (1×10^7 cells/mL) were exposed to ultraviolet irradiation or digoxin (100 nM) for 12 h. The cells were then analyzed for caspase-3 activation using caspase-3 activation assay kit following the manufacturer's instructions.
(§6) Caspase-3 activity was measured using a caspase-3 assay kit (Sigma-Aldrich Co. St Louis, Mo.). Briefly, tumor cell lines (1×10^7 cells/mL), and PBMC (1×10^7 cells/mL) were cultured in the presence or absence of the indicated concentration of digoxin. Cells were harvested by centrifugation and washed once with PBS. Cells were lysed with lysis buffer (30 mM Tris-HCl, pH 7.5, 150 mM NaCl, 1% Triton X-100, and 10% glycerol) and were centrifuged to remove cell debris, Caspase 3 activity was assayed in the cell lysate according to the manufacturer's instructions. The colorimetric assay is based on spectrophotometric detection of chromophore pNA at 405 nm after cleavage from labelled substrate DEVD-pNA. The level of caspase 3 activity is interpolated from a calibration curve.

For data set [6] the following is noted: Kometiani et al. 2005; cited from earlier work.
The subject of another data set is Daudi cells. Put plainly: Induction of apoptosis, annexin V-FITC/propidium iodide flow cytometry, Daudi. The note with it: for highest percentage of apoptosis / increase in apoptosis vs untreated control: Daudi cells; for highest percentage of apoptosis: 500 nM, n=4; for increase in apoptosis vs untreated control: increasing concentration; for IC50: Homo sapiens, Daudi. The class given is cell-based, human. On the procedure:
as §1, §2, §3

For data set [7], the system named is caspase-3 activity in Jurkat cells. Description: DEVD-dependent caspase-3 activity, Jurkat. It is filed as cell-based, human. The note with it: 100 nM, 12 h. On the procedure:
as §5, §6

The subject of data set [8] is caspase-3 activity in K 562 cells. Put plainly: DEVD-dependent caspase-3 activity, K 562. The class given is cell-based, human. As to conditions: 100 nM, 12 h. As for the experimental part: as §5, §6
Data set [9] relates to human lymphoblastic cell lines. Description: Induction of apoptosis in the cancer cell lines (Jurkat and Daudi together). As to conditions: read-out: concentration needed to induce a 50% apoptotic response. It is filed as cell-based. As for the experimental part:
as §3

The next data set deals with PBMC. Put plainly: Apoptosis after PHA stimulation, PBMC. The class given is cell-based, human. As to conditions: PHA 1 μg/mL, digoxin 10 nM-100 nM, 48 h. As for the experimental part: as §3
The subject of data set [10] is caspase-3 activity in Daudi cells. Put plainly: DEVD-dependent caspase-3 activity, Daudi. It is filed as cell-based, human. As to conditions: 100 nM, 12 h. On the procedure: as §5, §6
The mark [11] stands for this setting: 50% response relative to maximum apoptosis within the concentration ranges tested, 48 h, read-out: IC50, Induction of apoptosis on acute T-cell lymphoblastic leukemic cells (Jurkat).
[12] abbreviates: range of the IC50, read-out: Ranges of IC50, Induction of apoptosis on Jurkat.
The mark [13] stands for this setting: 50% response relative to the maximum NKA activity on the PCC, read-out: IC50, Inhibitory Potency on Porcine cerebral cortex (PCC) NKA catalytic activity.
Setting [14] is: range of the IC50, read-out: Range of IC50, Inhibitory Potency on PCC NKA catalytic activity.

As usually defined, the IC50 is the midpoint of a concentration-inhibition curve.

The structures appear in SMILES notation. Values joined by “and” are separate entries in the source; they are usually repeats but may differ in a detail not shown here. Equal entries are not always repeated. “Also recorded” adds a separate entry of the source. Where two headings read alike, the source gives them in different places.

Take `C[C@H]1O[C@@H](O[C@H]2[C@@H](O)C[C@H](O[C@H]3[C@@H](O)C[C@H](O[C@H]4CC[C@@]5(C)[C@H](CC[C@@H]6[C@@H]5C[C@@H](O)[C@]5(C)[C@@H](C7=CC(=O)OC7)CC[C@]65O)C4)O[C@@H]3C)O[C@@H]2C)C[C@H](O)[C@@H]1O` [Digoxin, digoxin]: the IC50 in the data set on Jurkat cells [1] (setting [11]) was 24 nM; in the data set on Jurkat cells [1] (setting [12]) it was 11 to 56 nM; in data set [4] (setting [13]), 910 nM; in data set [4] (setting [14]), 820 to 1010 nM; in the data set on Daudi cells (48 h, read-out: IC50, Induction of apoptosis on B-cell Burkitt's lymphoma cells (Daudi)) it was 48 nM; in the data set with Daudi cells (read-out: Ranges of IC50, Induction of apoptosis on Daudi) it was 35 to 65 nM. In addition, the “highest percentage of apoptosis” value in the data set on Jurkat cells [1] (500 nM, 48 h) was 50.2±4.5% and 50.2%±4.5%; in the data set on Daudi cells (48 h), 83.2±7.3% and 83.2%±7.3%. Moreover, the “increase in apoptosis vs untreated control” value with Jurkat cells [1] (48 h) is “significantly (P<0.05) led to increases in apoptosis”; in [2] it was “neither digoxin nor ouabain significantly induced apoptosis; also recorded: did not significantly (P>0.05) lead to increase in apoptosis”; in the data set on K 562 cells, “neither digoxin nor ouabain significantly induced apoptosis; also recorded: did not significantly (P>0.05) lead to increases in apoptosis”; in the data set on Daudi cells (48 h) it was “significantly (P<0.05) led to increase in apoptosis”. In addition, the “percent of apoptosis in the presence of PHA” value is given as “synergistically increased” in the data set with Jurkat cells [3], “synergistically induced apoptosis; also recorded: synergistically increased” in the data set with Jurkat cells [3] (listed as digoxin), “No such effect” in the data set with PBMC and “No such synergistic effect; also recorded: no such synergistic increase” in the data set on PBMC (listed as digoxin). Further, the “caspase-3 activity relative to the untreated controls” value in data set [5] is recorded as “no such increases”; in [7], 8 fold; in data set [8], “no such increases”; in [10], 7 fold. In data set [6], the “therapeutic concentrations in blood” value is given as “approximately 2 nM”. The EC50 in data set [9] fell in the range of 20 to 40 nM.

In the case of `C[C@@H]1O[C@@H](O[C@H]2C[C@@H](O)[C@]3(CO)[C@H]4[C@H](O)C[C@]5(C)[C@@H](C6=CC(=O)OC6)CC[C@]5(O)[C@@H]4CC[C@]3(O)C2)[C@H](O)[C@H](O)[C@H]1O` [Ouabain, ouabain], the IC50 in the data set on Jurkat cells [1] (setting [11]) was 26 nM; in the data set on Jurkat cells [1] (setting [12]), 19 to 48 nM; in [4] (setting [13]), 600 nM; in data set [4] (setting [14]), 550 to 650 nM; in the data set on Daudi cells (50% response relative to maximum apoptosis within the concentration ranges tested, 48 h, read-out: IC50, Induction of apoptosis on B-cell Burkitt's lymphoma cells (Daudi)), 40 nM; with Daudi cells (range of the IC50, read-out: Ranges of IC50, Induction of apoptosis on Daudi) it was 36 to 56 nM. Further, the “highest percentage of apoptosis” value with Jurkat cells [1] (100 nM, 48 h) is 47.6±3.9% and 47.6±5.6%; in the data set with Daudi cells (48 h) it was 81.1±6.1%. Also, the “increase in apoptosis vs untreated control” value is “significantly (P<0.05) led to increases in apoptosis” with Jurkat cells [1] (48 h), “neither digoxin nor ouabain significantly induced apoptosis; also recorded: did not significantly (P>0.05) lead to increase in apoptosis” in [2], “neither digoxin nor ouabain significantly induced apoptosis; also recorded: did not significantly (P>0.05) lead to increases in apoptosis” in the data set on K 562 cells and “significantly (P<0.05) led to increase in apoptosis” in the data set on Daudi cells (48 h). The EC50 in data set [9] (based on the maximum apoptosis at 500 nM, for each of the cancer cell lines) lay within 20 to 40 nM.
